The source made the active and inactive calls. No cut-off for these calls is given here.
Tests used:
K562-Lucena 1 [1] = test: Induction of cell cycle arrest in human K562-Lucena 1 cells assessed as necrotic cells at 5.1 uM after 24 hrs by propidium iodide staining based flow cytometric analysis (reference value: 1.03%); assay type: functional
K562 [2] = test: Induction of cell cycle arrest in human K562 cells assessed as decrease in accumulation of cells at S phase at 2.3 uM after 24 hrs by propidium iodide staining based flow cytometric analysis; assay type: functional
K562 [3] = test: Induction of cell cycle arrest in human K562 cells at 2.3 uM after 48 hrs by propidium iodide staining based flow cytometric analysis; assay type: functional
K562-Lucena 1 [4] = test: Induction of cell cycle arrest in human K562-Lucena 1 cells assessed as early apoptotic cells at 5.1 uM after 48 hrs by propidium iodide staining based flow cytometric analysis (reference value: 7.57%); assay type: functional
K562 [5] = test: Cytotoxicity against human K562 cells after 48 hrs by MTT assay; assay type: functional, cell-based; conditions: K562, 48 h
K562-Lucena 1 [6] = test: Induction of cell cycle arrest in human K562-Lucena 1 cells assessed as viable cells at 5.1 uM after 48 hrs by propidium iodide staining based flow cytometric analysis (reference value: 87.1%); assay type: functional; conditions: K562-Lucena 1, 48 h, read-out: Activity
K562-Lucena 1 [7] = test: Induction of cell cycle arrest in human K562-Lucena 1 cells assessed as viable cells at 5.1 uM after 24 hrs by propidium iodide staining based flow cytometric analysis (reference value: 88%); assay type: functional; conditions: K562-Lucena 1, 24 h, read-out: Activity
K562 [8] = test: Induction of cell cycle arrest in human K562 cells assessed as accumulation of cells at G2/M phase at 2.3 uM after 24 hrs by propidium iodide staining based flow cytometric analysis (reference value: 0.4 +/- 0.2%); assay type: functional
K562-Lucena 1 [9] = test: Induction of morphological changes in human K562-Lucena 1 cells assessed as appearance of apoptotic bodies at 5.1 uM incubated for 48 hrs by DAPI staining based fluorescence microscopy; assay type: functional, cell-based
K562 [10] = test: Induction of DNA fragmentation in human K562 cells at 2.3 uM incubated for 48 hrs by DAPI staining based fluorescence microscopy; assay type: functional, cell-based
K562-Lucena 1 [11] = test: Induction of cell cycle arrest in human K562-Lucena 1 cells assessed as late apoptotic cells at 5.1 uM after 24 hrs by propidium iodide staining based flow cytometric analysis (reference value: 3.15%); assay type: functional
PBMC = test: Cytotoxicity against PBMC (unknown origin) after 48 hrs by MTT assay; assay type: cell-based
CCRF-CEM = test: Cytotoxicity against human CCRF-CEM cells after 48 hrs by MTT assay; assay type: functional, cell-based
K562-Lucena 1 [12] = test: Cytotoxicity against human K562-Lucena 1 cells after 48 hrs by MTT assay; assay type: functional, cell-based; conditions: K562-Lucena 1, 48 h
K562-Lucena 1 [13] = test: Induction of morphological changes in human K562-Lucena 1 cells assessed as appearance of condensed chromatin at 5.1 uM incubated for 48 hrs by DAPI staining based fluorescence microscopy; assay type: functional, cell-based
K562-Lucena 1 [14] = test: Induction of cell cycle arrest in human K562-Lucena 1 cells assessed as decrease in accumulation of cells at G1 phase at 5.1 uM after 24 hrs by propidium iodide staining based flow cytometric analysis; assay type: functional
ADR5000 cell line = test: Cytotoxicity against human CEM/ADR5000 cells after 48 hrs by MTT assay; assay type: functional, cell-based; conditions: ADR5000, 48 h
K562-Lucena 1 [15] = test: Induction of cell cycle arrest in human K562-Lucena 1 cells at 5.1 uM after 48 hrs by propidium iodide staining based flow cytometric analysis; assay type: functional
K562 [16] = test: Induction of apoptosis in human K562 cells assessed as viable cells at 2.3 uM after 24 hrs by Annexin V-FITC/PI double staining based flow cytometry analysis (Rvb =96.4%); assay type: functional; conditions: K562, 24 h, read-out: Activity
K562-Lucena 1 [17] = test: Induction of DNA fragmentation in human K562-Lucena 1 cells at 5.1 uM incubated for 48 hrs by DAPI staining based fluorescence microscopy; assay type: functional, cell-based
K562-Lucena 1 [18] = test: Induction of cell cycle arrest in human K562-Lucena 1 cells assessed as accumulation of cells at G2/M phase at 5.1 uM after 24 hrs by propidium iodide staining based flow cytometric analysis (reference value: 3.3 +/- 0.1%); assay type: functional
K562 [19] = test: Induction of apoptosis in human K562 cells assessed as early apoptotic cells at 2.3 uM after 48 hrs by Annexin V-FITC/PI double staining based flow cytometry analysis (reference value: 1.67%); assay type: functional
K562 [20] = test: Induction of apoptosis in human K562 cells assessed as necrotic cells at 2.3 uM after 24 hrs by Annexin V-FITC/PI double staining based flow cytometry analysis (reference value: 0.085%); assay type: functional
K562 [21] = test: Induction of apoptosis in human K562 cells assessed as viable cells at 2.3 uM after 48 hrs by Annexin V-FITC/PI double staining based flow cytometry analysis (Rvb =97.8%); assay type: functional; conditions: K562, 48 h, read-out: Activity
K562-Lucena 1 [22] = test: Induction of cell cycle arrest in human K562-Lucena 1 cells assessed as late apoptotic cells at 5.1 uM after 48 hrs by propidium iodide staining based flow cytometric analysis (reference value: 3.23%); assay type: functional
K562-Lucena 1 [23] = test: Induction of cell cycle arrest in human K562-Lucena 1 cells assessed as early apoptotic cells at 5.1 uM after 24 hrs by propidium iodide staining based flow cytometric analysis (reference value: 7.79%); assay type: functional
K562 [24] = test: Induction of morphological changes in human K562 cells assessed as appearance of condensed chromatin at 2.3 uM incubated for 48 hrs by DAPI staining based fluorescence microscopy; assay type: functional, cell-based
K562 [25] = test: Induction of apoptosis in human K562 cells assessed as necrotic cells at 2.3 uM after 48 hrs by Annexin V-FITC/PI double staining based flow cytometry analysis (reference value: 0.13%); assay type: functional
K562 [26] = test: Induction of cell cycle arrest in human K562 cells assessed as decrease in accumulation of cells at G1 phase at 2.3 uM after 24 hrs by propidium iodide staining based flow cytometric analysis; assay type: functional
K562 [27] = test: Induction of apoptosis in human K562 cells assessed as early apoptotic cells at 2.3 uM after 24 hrs by Annexin V-FITC/PI double staining based flow cytometry analysis (reference value: 2.76%); assay type: functional
K562 [28] = test: Induction of apoptosis in human K562 cells assessed as late apoptotic cells at 2.3 uM after 48 hrs by Annexin V-FITC/PI double staining based flow cytometry analysis (reference value: 0.41%); assay type: functional
K562-Lucena 1 [29] = test: Induction of cell cycle arrest in human K562-Lucena 1 cells assessed as necrotic cells at 5.1 uM after 48 hrs by propidium iodide staining based flow cytometric analysis (reference value: 2.15%); assay type: functional
K562 [30] = test: Induction of morphological changes in human K562 cells assessed as appearance of apoptotic bodies at 2.3 uM incubated for 48 hrs by DAPI staining based fluorescence microscopy; assay type: functional, cell-based
K562 [31] = test: Induction of apoptosis in human K562 cells assessed as late apoptotic cells at 2.3 uM after 24 hrs by Annexin V-FITC/PI double staining based flow cytometry analysis (reference value: 0.79%); assay type: functional
K562 [32] = test: Induction of cell cycle arrest in human K562 cells assessed as increase in hypodiploid cells at sub-G1 phase at 2.3 uM after 48 hrs by propidium iodide staining based flow cytometric analysis; assay type: functional
K562-Lucena 1 [33] = test: Induction of cell cycle arrest in human K562-Lucena 1 cells assessed as increase in hypodiploid cells at sub-G1 phase at 5.1 uM after 48 hrs by propidium iodide staining based flow cytometric analysis; assay type: functional

SMILES: C=C(C)C(=O)O[C@H]1C/C(CO)=C/CC[C@@]2(C)O[C@H]2[C@H]2OC(=O)C(=C)[C@@H]21
- Activity (K562-Lucena 1 [1]): 1.38%
- Activity (K562 [2]): inactive
- Activity (K562 [3]): inactive
- Activity (K562-Lucena 1 [4]): 31.4%
- IC50 (K562 [5]): 2.3 µM
- viability at 5.1 µM (K562-Lucena 1 [6]): 54.5%
- viability at 5.1 µM (K562-Lucena 1 [7]): 80.4%
- Activity (K562 [8]): 15.1%
- Activity (K562-Lucena 1 [9]): Active
- Activity (K562 [10]): Active
- Activity (K562-Lucena 1 [11]): 3.46%
- IC50 (PBMC): 79.9 µM
- IC50 (CCRF-CEM): 0.42 µM
- IC50 (K562-Lucena 1 [12]): 5.1 µM
- Activity (K562-Lucena 1 [13]): Active
- Activity (K562-Lucena 1 [14]): Active
- IC50 (ADR5000 cell line): 0.4 µM
- Activity (K562-Lucena 1 [15]): inactive
- viability at 2.3 µM (K562 [16]): 96.7%
- Activity (K562-Lucena 1 [17]): Active
- Activity (K562-Lucena 1 [18]): 23.2%
- Activity (K562 [19]): 30.6%
- Activity (K562 [20]): 0.42%
- viability at 2.3 µM (K562 [21]): 66.4%
- Activity (K562-Lucena 1 [22]): 10.8%
- Activity (K562-Lucena 1 [23]): 14.7%
- Activity (K562 [24]): Active
- Activity (K562 [25]): 0.56%
- Activity (K562 [26]): inactive
- Activity (K562 [27]): 2.26%
- Activity (K562 [28]): 2.38%
- Activity (K562-Lucena 1 [29]): 3.29%
- Activity (K562 [30]): Active
- Activity (K562 [31]): 0.64%
- Activity (K562 [32]): Active
- Activity (K562-Lucena 1 [33]): Active
